Earlier results as cited in patent publication US20170108488A1, “Array and Method of Use” (Quick Biology, Inc., priority 2015, published 2017).

How the values were obtained:
SB-2 tumor xenograft = conditions: in combination with the MEK inhibitor GSK1120212; NRAS mutant melanoma
BRAF = BRAF (Homo sapiens, UniProt P15056, V600E); conditions: melanomas with BRAF activating mutations
Sequence of BRAF (P15056 whole entry V600E): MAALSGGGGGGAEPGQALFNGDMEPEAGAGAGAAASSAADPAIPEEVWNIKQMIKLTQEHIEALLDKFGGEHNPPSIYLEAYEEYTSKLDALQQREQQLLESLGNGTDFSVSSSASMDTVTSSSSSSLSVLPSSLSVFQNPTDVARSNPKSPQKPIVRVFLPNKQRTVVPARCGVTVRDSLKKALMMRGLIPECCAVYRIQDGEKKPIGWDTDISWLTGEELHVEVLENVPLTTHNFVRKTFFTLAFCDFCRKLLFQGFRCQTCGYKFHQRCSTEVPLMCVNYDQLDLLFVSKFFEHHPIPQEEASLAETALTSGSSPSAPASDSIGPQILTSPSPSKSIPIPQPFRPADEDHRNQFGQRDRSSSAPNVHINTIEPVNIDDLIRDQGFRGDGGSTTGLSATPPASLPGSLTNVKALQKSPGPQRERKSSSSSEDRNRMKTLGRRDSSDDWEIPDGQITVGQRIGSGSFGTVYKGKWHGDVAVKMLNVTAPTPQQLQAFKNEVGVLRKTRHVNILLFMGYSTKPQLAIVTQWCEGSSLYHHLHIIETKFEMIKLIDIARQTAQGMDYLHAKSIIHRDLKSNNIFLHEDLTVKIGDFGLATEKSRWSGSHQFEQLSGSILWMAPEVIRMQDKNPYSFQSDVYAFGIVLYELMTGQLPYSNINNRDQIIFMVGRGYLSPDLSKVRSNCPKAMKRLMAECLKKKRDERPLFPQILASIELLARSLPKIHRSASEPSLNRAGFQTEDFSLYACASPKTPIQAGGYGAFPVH

| Compound | tumor response in SB-2 tumor xenograft (SB-2 tumor xenograft) | success rate in melanomas (BRAF) |
| --- | --- | --- |
| CC(=O)c1c(C)c2cnc(Nc3ccc(N4CCNCC4)cn3)nc2n(C2CCCC2)c1=O [PD-0332991] | tumor regression was achieved | – |
| CCCS(=O)(=O)Nc1ccc(F)c(C(=O)c2c[nH]c3ncc(-c4ccc(Cl)cc4)cc23)c1F [PLX4032] | – | high success rate |
